Reference: patent US20040171566A1, “Antisense modulation of p38 mitogen activated protein kinase expression” (priority 1999, published 2004)
In the oligonucleotide strings, read from the 5' end, every base follows the letter of its sugar. An asterisk marks phosphorothioate; unmarked linkages are phosphodiester. Other units and linkages are bracketed, terminal groups are in braces. A string of capitals states the bases alone. e = 2'-O-(2-methoxyethyl) (MOE); [5mC] = 5-methylcytosine; d = 2'-deoxy (DNA)

Key:
mouse p38α mRNA = experiment: Inhibition of mouse p38α mRNA expression in bEND.3 cells, Northern blot; format: cell-based
Protocol: (§1) bEND.3, a mouse endothelial cell line (gift of Dr. Werner Risau; see Montesano et al., Cell, 1990, 62, 435, and Stepkowski et al., J. Immunol., 1994, 153, 5336) were grown in high-glucose DMEM (Life Technologies, Gaithersburg, Md.) medium containing 10% fetal bovine serum (FBS) and 1% Penicillin/Streptomycinin. Cells were plated at approximately 2×10^5 cells per 100 mm dish. Within 48 hours of plating, the cells were washed with phosphate-buffered saline (Life Technologies). Then, Opti-MEM7 medium containing 3 μg/mL LIPOFECTIN^7 and an appropriate amount of oligonucleotide were added to the cells. As a control, cells were treated with LIPOFECTIN^7 without oligonucleotide under the same conditions and for the same times as the oligonucleotide-treated samples.
(§2) After 4 hours at 37° C., the medium was replaced with high glucose DMEM medium containing 10% FBS and 1% Penicillin/Streptomycinin. The cells were typically allowed to recover overnight (about 18 to 24 hours) before RNA and/or protein assays were performed as described in Example 2. The p38α, p38β and G3PDH probes used were identical to those described in Example 2.
(§3) Rat p38α antisense oligonucleotides were screened in bEND.3 cells for inhibition of p38α and p38β mRNA expression. The concentration of oligonucleotide used was 100 nM. Oligonucleotides 21844 (SEQ ID NO. 47), 21845 (SEQ ID NO. 48), 21872 (SEQ ID NO. 51), 21873 (SEQ ID NO. 52), 21875 (SEQ ID NO. 54), and 21876 (SEQ ID NO.
(§4) Mouse p38β antisense sequences were screened in bEND.3 cells as described in Example 4.

human p38β mRNA [1] = experiment: Inhibition of human p38β mRNA expression in HUVEC cells, Northern blot; format: cell-based
Protocol: The human Jurkat T-cell line (American Type Culture Collection, Manassas, Va.) was maintained in RPMI 1640 growth media supplemented with 10% fetal bovine serum (FBS; Hyclone, Logan, Utah). HUVEC cells (Clonetics, San Diego, Calif.) were cultivated in endothelial basal media supplemented with 10% FBS (Hyclone, Logan, Utah).
HUVEC cells were allowed to reach 75% confluency prior to use. The cells were washed twice with warm (37° C.) OPTI-MEM™ (Life Technologies). The cells were incubated in the presence of the appropriate culture medium, without the growth factors added, and the oligonucleotide formulated in LIPOFECTIN7 (Life Technologies), a 1:1 (w/w) liposome formulation of the cationic lipid N-[1-(2,3-dioleyloxy)propyl]-n,n,n-trimethylammonium chloride (DOTMA), and dioleoyl phosphotidylethanolamine (DOPE) in membrane filtered water. HUVEC cells were treated with 100 nM oligonucleotide in 10 μg/ml LIPOFECTIN7. Treatment was for four hours.
Total mRNA was isolated using the RNEASY7 Mini Kit (Qiagen, Valencia, Calif.; similar kits from other manufacturers may also be used), separated on a 1% agarose gel, transferred to HYBOND™-N+ membrane (Amersham Pharmacia Biotech, Piscataway, N.J.), a positively charged nylon membrane, and probed. p38 MAPK probes were made using the Prime-A-Gene7 kit (Promega Corporation, Madison, Wis.), a random primer labeling kit, using mouse p38α or p38β cDNA as a template. A glyceraldehyde 3-phosphate dehydrogenase (G3PDH) probe was purchased from Clontech (Palo Alto, Calif.), Catalog Number 9805-1. The fragments were purified from low-melting temperature agarose, as described in Maniatis, T., et al., Molecular Cloning: A Laboratory Manual, 1989. The G3PDH probe was labeled with REDIVUE™ ^32P-dCTP (Amersham Pharmacia Biotech, Piscataway, N.J.) and Strip-EZ labelling kit (Ambion, Austin, Tex.). mRNA was quantitated by a PhosphoImager (Molecular Dynamics, Sunnyvale, Calif.).
Every oligonucleotide tested gave at least 50% inhibition.
Oligonucleotides 17893 (SEQ ID NO. 27), 17899 (SEQ ID NO:33), 17904 (SEQ ID NO. 38), and 17907 (SEQ ID NO. 41) were chosen for dose response studies. HUVEC cells were cultured and treated as described in Example 2 except that the oligonucleotide concentration was varied as shown in Table 6. The Lipofectin7/Oligo ratio was maintained at 3 μg Lipofectin7/100 nM oligo, per ml. mRNA was measured by Northern blot as described in Example 2.

human p38α mRNA = experiment: Human p38α mRNA expression in T-24 cells; details: initial screen of human p38β oligonucleotides
human p38β mRNA [2] = experiment: Human p38β mRNA expression in T-24 cells
mouse p38β mRNA = experiment: Inhibition of mouse p38β mRNA expression in bEND.3 cells, Northern blot; format: cell-based
Protocol: as §1, §2, §3, §4

rat p38α mRNA = experiment: Inhibition of rat p38α mRNA expression in A-10 cells, Northern blot; format: cell-based; details: Rat A-10 cells, 200 nM oligonucleotide, 24 hours
Protocol: Rat p38α antisense oligonucleotides were screened in Rat A-10 cells. A-10 cells (American Type Culture Collection, Manassas, Va.) were grown in high-glucose DMEM (Life Technologies, Gaithersburg, Md.) medium containing 10% fetal calf serum (FCS). Cells were treated with oligonucleotide as described in Example 2. Oligonucleotide concentration was 200 nM. mRNA was isolated 24 hours after time zero and quantitated by Northern blot as described in Example 2.

[3] = mouse p38β antisense oligonucleotides, screened as in Example 4
[4] = 100 nM oligonucleotide in 10 μg/ml LIPOFECTIN, four hours, Northern blot
[5] = dose 50 nM, relative to control oligonucleotide = 100%
[6] = dose 100 nM, relative to control oligonucleotide = 100%
[7] = dose 200 nM, relative to control oligonucleotide = 100%
[8] = initial screen of human p38β oligonucleotides
[9] = 100 nM rat p38α antisense oligonucleotide

“AoCoAoToTsGsCsTsGsGsGsCsTsTsCsAoGoGoToC (antisense eAe[5mC]eAeTeT*dG*d[5mC]*dT*dG*dG*dG*d[5mC]*dT*dT*d[5mC]*eAeGeGeTe[5mC]) [ISIS 100808]” was tested. Which “% p38α mRNA INHIBITION” value (mouse p38α mRNA; [3]) did it give?
The value was 13%.

Which “% mRNA EXPRESSION” value (human p38β mRNA [1]; [4]) does the source give for “ATCCTGAGCTCACAGTCCTC (chimeric, phosphorothioate, further chemistry not given here) [ISIS 17899]” here?
Its value is 5%.

What about the “% mRNA Inhibition” value (human p38β mRNA [1]; [4]) of the same substance?
The value was 95%.

And the “% mRNA EXPRESSION” value (human p38β mRNA [1]; dose 10 nM)?
Its value is 37%.

What about the “% mRNA Inhibition” value (human p38β mRNA [1]; dose 10 nM) of the same substance?
The value was 63%.

What about the “% mRNA EXPRESSION” value (human p38β mRNA [1]; dose 25 nM) of the same substance?
The value was 23%.

What about the “% mRNA Inhibition” value (human p38β mRNA [1]; dose 25 nM) of the same substance?
Its value is 77%.

And the “% mRNA EXPRESSION” value (human p38β mRNA [1]; dose 50 nM)?
Its value is 18%.

What about the “% mRNA Inhibition” value (human p38β mRNA [1]; dose 50 nM) of the same substance?
The value was 82%.

What about the “% mRNA EXPRESSION” value (human p38β mRNA [1]; dose 100 nM) of the same substance?
Its value is 21%.

What about the “% mRNA Inhibition” value (human p38β mRNA [1]; dose 100 nM) of the same substance?
Its value is 79%.

What about the “% p38α mRNA EXPRESSION” value (human p38α mRNA) of the same substance?
Its value is 117%.

What about the “% p38β mRNA Expression” value (human p38β mRNA [2]; [5]) of the same substance?
Its value is 89%.

And the “% p38β mRNA Expression” value (human p38β mRNA [2]; [6])?
Its value is 36%.

And the “% p38β mRNA Expression” value (human p38β mRNA [2]; [7])?
The value was 15%.

What about the “% p38β mRNA Expression” value (human p38β mRNA [2]; [8]) of the same substance?
The value was 56%.

For “ToAoCoCoAsCsCsGsTsGsTsGsGsCsCsAoCoAoToA (antisense eTeAe[5mC]e[5mC]eA*d[5mC]*d[5mC]*dG*dT*dG*dT*dG*dG*d[5mC]*d[5mC]*eAe[5mC]eAeTeA) [ISIS 100810]”, which “% p38α mRNA INHIBITION” value (mouse p38α mRNA; [3]) is on record?
Its value is 1%.

How did the “% p38α mRNA INHIBITION” value (mouse p38α mRNA; dose 25 nM) turn out when “CoToGoCoGsAsCsAsTsTsTsTsCsCsAsGoCoGoGoC (antisense e[5mC]eTeGe[5mC]eG*dA*d[5mC]*dA*dT*dT*dT*dT*d[5mC]*d[5mC]*dA*eGe[5mC]eGeGe[5mC]) [ISIS 21844]” was run?
The value was 36%.

What about the “% p38α mRNA INHIBITION” value (mouse p38α mRNA; dose 100 nM (dose response)) of the same substance?
Its value is 80%.

And the “% p38β mRNA Inhibition” value (mouse p38β mRNA; dose 25 nM)?
The value was 8%.

What about the “% p38β mRNA Inhibition” value (mouse p38β mRNA; dose 100 nM (dose response)) of the same substance?
Its value is 5%.

And the “% p38α mRNA EXPRESSION” value (rat p38α mRNA)?
Its value is 75%.

What about the “% p38α mRNA INHIBITION” value (rat p38α mRNA) of the same substance?
Its value is 25%.

How did the “% p38α mRNA INHIBITION” value (mouse p38α mRNA; dose 25 nM) turn out when “GoAoGoCoAsGsGsCsAsGsAsCsTsGsCsCoAoAoGoG (antisense eGeAeGe[5mC]eA*dG*dG*d[5mC]*dA*dG*dA*d[5mC]*dT*dG*d[5mC]*e[5mC]eAeAeGeG) [ISIS 21875]” was run?
Its value is 33%.

What about the “% p38α mRNA INHIBITION” value (mouse p38α mRNA; dose 100 nM (dose response)) of the same substance?
The value was 72%.

What about the “% p38β mRNA Inhibition” value (mouse p38β mRNA; [9]) of the same substance?
The value was “minimal effects”.

And the “% p38β mRNA Inhibition” value (mouse p38β mRNA; dose 1 nM)?
The value was 11%.

And the “% p38β mRNA Inhibition” value (mouse p38β mRNA; dose 5 nM)?
The value was 16%.

What about the “% p38β mRNA Inhibition” value (mouse p38β mRNA; dose 25 nM) of the same substance?
The value was 2%.

What about the “% p38β mRNA Inhibition” value (mouse p38β mRNA; dose 100 nM (dose response)) of the same substance?
Its value is 4%.

What about the “% p38α mRNA EXPRESSION” value (rat p38α mRNA) of the same substance?
Its value is 26%.

Which “% p38α mRNA INHIBITION” value (mouse p38α mRNA; [3]) does the source give for “CoAoGoGoCsCsAsCsAsGsAsCsCsAsGsAoToGoToC (antisense e[5mC]eAeGeGe[5mC]*d[5mC]*dA*d[5mC]*dA*dG*dA*d[5mC]*d[5mC]*dA*dG*eAeTeGeTe[5mC]) [ISIS 100812]” here?
The value was 17%.

What about the “% p38β mRNA Inhibition” value (mouse p38β mRNA; [3]) of the same substance?
The value was 36%.

Which results are given for “TGCCCTGGAGCAGCTCAGCC (antisense eTeGe[5mC]e[5mC]e[5mC]*dT*dG*dG*dA*dG*d[5mC]*dA*dG*d[5mC]*dT*e[5mC]eAeGe[5mC]e[5mC]) [ISIS 107878]”?
% p38α mRNA EXPRESSION (human p38α mRNA): 112%; % p38β mRNA Expression (human p38β mRNA [2]; [5]): 70%; % p38β mRNA Expression (human p38β mRNA [2]; [6]): 43%; % p38β mRNA Expression (human p38β mRNA [2]; [7]): 27%; % p38β mRNA Expression (human p38β mRNA [2]; [8]): 54%

For “AoGoGoCoTsAsGsAsGsCsCsCsAsGsGsAoGoCoCoA (antisense eAeGeGe[5mC]eT*dA*dG*dA*dG*d[5mC]*d[5mC]*d[5mC]*dA*dG*dG*eAeGe[5mC]e[5mC]eA) [ISIS 21876]”, which “% p38β mRNA Inhibition” value (mouse p38β mRNA; [9]) is on record?
The value was “minimal effects”.

And the “% p38α mRNA EXPRESSION” value (rat p38α mRNA)?
The value was 61%.

And the “% p38α mRNA INHIBITION” value (rat p38α mRNA)?
The value was 39%.

For “AoToCoCoTsCsAsGsCsTsCsGsCsAsGsToCoCoToC (antisense eAeTe[5mC]e[5mC]eT*d[5mC]*dA*dG*d[5mC]*dT*d[5mC]*dG*d[5mC]*dA*dG*eTe[5mC]e[5mC]eTe[5mC]) [ISIS 100809]”, which “% p38α mRNA INHIBITION” value (mouse p38α mRNA; [3]) is on record?
Its value is 14%.
